Laboratory results: patent US12145975B2, “Fusion proteins for the treatment of cardiometabolic diseases” (Shattuck Labs, Inc., priority 2022, dated 2024)
“Also recorded” adds a separate entry of the source. Where no end group is shown, it is not given here.

How the values were obtained:
GIPR = target: T1, GIPR (Rattus norvegicus, UniProt P43219); experiment: GIPR agonism/antagonism in rat INS-1 cells having pGloSensor-22F biosensor; type: cell-based; set-up: dose or concentration left out as unconfirmed
T1 construct: endogenous in cells; host or cells: rat INS-1 insulinoma cells (derivatives with a cAMP-luciferase reporter or pGloSensor-22F)
T1 sequence (P43219 19-455): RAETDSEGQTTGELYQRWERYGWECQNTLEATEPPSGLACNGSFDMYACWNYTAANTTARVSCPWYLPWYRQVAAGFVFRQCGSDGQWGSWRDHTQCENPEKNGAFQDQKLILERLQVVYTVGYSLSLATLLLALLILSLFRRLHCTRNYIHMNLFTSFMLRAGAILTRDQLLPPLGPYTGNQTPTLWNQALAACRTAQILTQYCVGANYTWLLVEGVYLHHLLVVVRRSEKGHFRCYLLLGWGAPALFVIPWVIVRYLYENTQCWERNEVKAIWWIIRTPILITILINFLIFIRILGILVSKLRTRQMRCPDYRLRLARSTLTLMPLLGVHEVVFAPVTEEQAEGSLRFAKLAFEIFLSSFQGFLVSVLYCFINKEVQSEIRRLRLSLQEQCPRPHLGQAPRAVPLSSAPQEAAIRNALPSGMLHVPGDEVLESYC
Experimental: A series of GIP antagonist peptides were evaluated at blocking human GIP (hGIP) agonism and the induction of cAMP. Briefly, rat INS-1 cells having pGloSensor-22F (Promega) were constructed and used to evaluate GIPR agonism and antagonism. […] The conformational change leads to the activation of the luciferase enzyme, thereby allowing detection of activation of GIPR, which produces cAMP upon activation.
To assay for GIPR agonism, rat INS-1 cells having pGloSensor-22F biosensor were treated with increasing concentrations of GIP(Ag). Immediately after the addition, the luminescence of the cells was measured, normalized using the basal luminescence and plotted.
GIPR antagonism was measured as the inhibition of GIP(Ag)-induced activation of the cAMP-luciferase reporter gene in rat INS-1 cells having pGloSensor-22F biosensor. The following GIP derivatives accessed in this assay for GIPR antagonism: GIP(Ant 3-30), GIP(Ant 3-30NH2), (GIP(Ant 3-30) having amidated carboxy terminus), GIP(AntPro3), GIP(AntPro3NH2), GIP(Ant3-30, Pro3) and GIP(Ant3-30, Pro3NH2). Briefly, rat INS-1 cells having pGloSensor-22F were treated with increasing doses of the above various GIP derivatives, mixed with […] GIP(Ag). Immediately after the addition, the luminescence of the cells was measured, normalized using the basal luminescence and plotted.
The GIP(Ag) was re-evaluated across a broader concentration range. Rat INS-1 cells having pGloSensor-22F biosensor were treated with increasing concentrations of GIP(Ag). Immediately after the addition, the luminescence of the cells was measured, normalized using the basal luminescence and plotted.
The GIP(AntPro3) and GIP(AntPro3NH2) were re-evaluated across a broader concentration range. Briefly, rat INS-1 cells having pGloSensor-22F were treated with increasing doses of GIP(AntPro3) and GIP(AntPro3NH2), mixed with […] GIP(Ag). Immediately after the addition, the luminescence of the cells was measured, normalized using the basal luminescence and plotted.

[1] = test system: rat insulinoma INS-1 cells; experiment: in vitro glucose-stimulated insulin secretion (GSIS) in rat insulinoma INS-1 cells; type: cell-based; conditions: 1 hour glucose, then 2 hour incubation; ELISA; FIG. 4B
Description: X is a known inducer of GSIS.

HFD-fed mice [2] = experiment: glucose tolerance test (GTT) model in HFD-fed mice; type: in vivo; conditions: for serum insulin following glucose administration (time course) / glucose tolerance: GTT; for serum insulin following glucose administration (time course): FIG. 7C; for glucose tolerance: summary of Example 11; for serum glucose following glucose administration (time course): i.v. treatment, 18 hours fast, 2 g/kg glucose i.v., tirzepatide 1.25 mpk, fusion protein 5 mpk, mRNA 1 mpk, FIG. 7A
Experimental: Cages were changed once, then changed once a week.
The mice administered the above treatment by i.v. injections. The mice were then fasted for 18 hours and administered a dose of 2 g/kg glucose by i.v. injections. Blood samples were drawn by tail clip bleeding at 15, 30 and 60 minutes post dosing and cardiac bleeding was used at 2 hours after glucose injection as end-point.

HFD-fed mice [3] = experiment: longer-term obesity model in HFD-fed mice; conditions: for blood glucose levels compared to the untreated mice: Days 0, 1, 10 and 15, FIG. 8E; for weights of individual mice: FIG. 8B; for plasma insulin levels on Day 15: FIG. 8C right panel; for average daily food intake compared to the untreated mice: FIG. 8D; for collagen staining (fibrosis), liver sections stained with picrosirius red / collagen staining (fibrosis) in comparison with tirzepatide or dulaglutide: FIG. 8I; for hepatocellular ballooning and steatosis (liver H&E histology): FIG. 8J; for plasma insulin levels on Day 1: between 15 and 120 minutes after treatment, FIG. 8C left panel; for liver weight, PBS control versus treated mice / subcutaneous white adipose tissue (sWAT) weight: day 19 terminal necropsy; for liver weight, PBS control versus treated mice: FIG. 8G; for subcutaneous white adipose tissue (sWAT) weight: FIG. 8H; for tolerability / clinical observations: obesity model, repeated tail vein dosing; for collagen staining (fibrosis) in comparison with tirzepatide or dulaglutide: picrosirius red; for change in body weight: tail vein on Day 0, 4, 7, 10, 14, 18, dulaglutide 1 mpk, tirzepatide 0.5 mpk, fusion protein 5 mpk, mRNA 1 mpk, FIG. 8A
Experimental: Mice (Male C57BL/6) were of approximately 13 weeks of age were housed 4 mice per cage. Following 2 weeks of acclimation, mice were introduced to 60% kcal HFD (Research Diets D12492). Cages were changed once, then changed once a week. Weekly body weights and non-fasted blood glucose were collected.
Mice were injected by tail vein with vehicle or the drugs on Day 0, Day 4, Day 7, Day 10, Day 14, and Day 18. Body weights were measured every 2 days. Change in body weight was calculated and plotted.
Cumulative food intake was measured between day 0 and 3, between day 4 and 7, between day 7 and day 11, and between day 11 and day 14, and represented as average daily food intake. For food consumption, remaining food was weighed on days 3, 8, and 15, and subtracted from the starting weight. This value was then normalized to the number of mice in the cage, and the number of days the mice had access to the food prior to weighing.
Blood glucose levels were measured on Days 0, 1, 10 and 15 and plotted.
On day 19 during terminal necropsy, liver and subcutaneous white adipose tissue were recovered weighed from treated animals.
To further analyze the changes in liver, histopathological analysis was conducted. Briefly, the liver tissue was stained with hematoxylin and eosin (H&E) and evaluated using standard techniques.

GIP receptor (GIPR) = target: T2, GIP receptor (GIPR) (Rattus norvegicus, UniProt P43219); experiment: cAMP-Glo assay in rat insulinoma INS-1 cells harboring a cAMP-luciferase reporter gene; type: cell-based; conditions: 1 hour glucose, then 2 hour incubation with increasing amounts; FIG. 4A
T2 construct: endogenous in cells; host or cells: rat INS-1 insulinoma cells (derivatives with a cAMP-luciferase reporter or pGloSensor-22F)
T2 sequence (P43219 19-455): T1 sequence (P43219 19-455)
Description: Rat insulinoma INS-1 cells harboring a cAMP-luciferase reporter gene were used to study the activation of GIPR. Without wishing to be bound by theory, the activation of GIPR leads to temporary depletion of ATP because of consumption of ATP in cyclization reaction to produce cAMP as well as by phosphorylation by protein kinase A of its substrate. Without wishing to be bound by theory, the temporary depletion of ATP leads to an inhibition of luciferase activity, which needs ATP as a substrate.

[4] = broader concentration range, mixed with GIP(Ag), FIG. 5B
[5] = increasing doses mixed with GIP(Ag), FIG. 5A

| Substance | inhibition of GIP(Ag)-induced activation of the cAMP-luciferase reporter gene (GIPR antagonism) (GIPR; [4]) | inhibition of GIP(Ag)-induced activation of the cAMP-luciferase reporter gene (GIPR antagonism) (GIPR; [5]) | insulin in the culture supernatant (glucose-stimulated insulin secretion) [1] | serum insulin following glucose administration (time course) (HFD-fed mice [2]) | glucose tolerance (HFD-fed mice [2]) | serum glucose following glucose administration (time course) (HFD-fed mice [2]) | blood glucose levels compared to the untreated mice (HFD-fed mice [3]) | weights of individual mice (HFD-fed mice [3]) | plasma insulin levels on Day 15 (HFD-fed mice [3]) | average daily food intake compared to the untreated mice (HFD-fed mice [3]) | collagen staining (fibrosis), liver sections stained with picrosirius red (HFD-fed mice [3]) | hepatocellular ballooning and steatosis (liver H&E histology) (HFD-fed mice [3]) | plasma insulin levels on Day 1 (HFD-fed mice [3]) | liver weight, PBS control versus treated mice (HFD-fed mice [3]) | subcutaneous white adipose tissue (sWAT) weight (HFD-fed mice [3]) | tolerability / clinical observations (HFD-fed mice [3]) | collagen staining (fibrosis) in comparison with tirzepatide or dulaglutide (HFD-fed mice [3]) | change in body weight (HFD-fed mice [3]) | inhibition of luciferase (activation of GIPR) (GIP receptor (GIPR)) | hepatocellular ballooning and steatosis (liver H&E histology) compared to untreated animals (HFD-fed mice [3]; higher magnifications, FIG. 8K) |
| --- | --- | --- | --- | --- | --- | --- | --- | --- | --- | --- | --- | --- | --- | --- | --- | --- | --- | --- | --- | --- |
| GIP(AntPro3): GIP Antagonist (amino acids 1-42, having a E3P substitution); SEQ ID NO: 97 (YAPGTFISDYSIAMDKIHQQDFVNWLLAQKGKKNDWKHNITQ) | dose-dependent inhibition of GIP(Ag)-induced activation of the cAMP-luciferase reporter gene | more potent inhibition of GIP agonist signaling than the others tested; also recorded: maximal level of a dose-dependent inhibition of GIP(Ag)-induced activation |  |  |  |  |  |  |  |  |  |  |  |  |  |  |  |  |  |  |
| GIP(AntPro3NH2): GIP antagonist peptide, GIP(AntPro3) presumably with amidated carboxy terminus (YAPGTFISDYSIAMDKIHQQDFVNWLLAQKGKKNDWKHNITQ; also: presumably amidated C-terminus) | dose-dependent inhibition of GIP(Ag)-induced activation of the cAMP-luciferase reporter gene | more potent inhibition of GIP agonist signaling than the others tested; also recorded: maximal level of a dose-dependent inhibition of GIP(Ag)-induced activation |  |  |  |  |  |  |  |  |  |  |  |  |  |  |  |  |  |  |
| GLP-1-Fc-GIP(Ag): chimeric protein: GLP-1 fused to GIP agonist (amino acids 1-42) via IgG1 hinge-CH2-CH3 Fc domain; SEQ ID NO: 93 |  |  | stimulated insulin production to a similar, if not greater magnitude than dulaglutide or tirzepatide | rapid induction of insulin | improved glucose tolerance | much smaller increase in serum glucose | decrease in blood glucose | induced weight loss | significant decrease in the levels of insulin | decrease in food intake | decrease in collagen staining | decrease in hepatocellular ballooning and steatosis | rapid decrease in insulin levels | the livers of control mice that received only PBS were much heavier compared to the mice receiving treatments | decreased | well tolerated and no overt toxicities were noted | greater decrease in collagen staining compared to the livers from mice treated with tirzepatide or dulaglutide | progressive weight loss |  |  |
| GLP-1-Fc-GIP(AntPro3): chimeric protein: GLP-1 fused to GIP antagonist (amino acids 1-42, E3P) via IgG1 Fc domain; SEQ ID NO: 95 |  |  |  | rapid induction of insulin | improved glucose tolerance | much smaller increase in serum glucose | decrease in blood glucose | induced weight loss | significant decrease in the levels of insulin | decrease in food intake | decrease in collagen staining | decrease in hepatocellular ballooning and steatosis | rapid decrease in insulin levels | the livers of control mice that received only PBS were much heavier compared to the mice receiving treatments | decreased | well tolerated and no overt toxicities were noted | greater decrease in collagen staining compared to the livers from mice treated with tirzepatide or dulaglutide | progressive weight loss |  |  |
| dulaglutide [reference compound] |  |  |  |  |  |  | decrease in blood glucose |  | significant decrease in the levels of insulin | decrease in food intake | decrease in collagen staining | decrease in hepatocellular ballooning and steatosis | rapid decrease in insulin levels | the livers of control mice that received only PBS were much heavier compared to the mice receiving treatments | decreased | well tolerated and no overt toxicities were noted |  | progressive weight loss |  |  |
| tirzepatide [reference compound] |  |  |  | rapid induction of insulin |  | much smaller increase in serum glucose | decrease in blood glucose |  | significant decrease in the levels of insulin | decrease in food intake | decrease in collagen staining | decrease in hepatocellular ballooning and steatosis |  | the livers of control mice that received only PBS were much heavier compared to the mice receiving treatments | decreased |  |  | progressive weight loss | dose-dependent and saturable inhibition of luciferase with similar potency | significant decrease in hepatocellular ballooning and steatosis |
